In ChEMBL document CHEMBL3045519, “Selective Herbicidal Activity of 3, 5-Dichloropyridyloxy-phenoxypropionamidoxyacetic Acid Derivatives between Wheat and Wild Oat” (J Pestic Sci, 1996):
Active and inactive are the calls of the source. The calls are words filed in the database; no cut-off is given here.

How the values were obtained:
[1] = system: Triticum aestivum; assay: Phytotoxicity against Triticum aestivum (wheat) under greenhouse conditions at 2.5 g/a at 1.5-leaf stage measured after 3 weeks by pot test; assay type: organism-based; conditions: in vivo, 504 h
[2] = system: Avena fatua; assay: Post-emergence herbicidal activity against Avena fatua under greenhouse conditions at 0.3 g/a at 1.5-leaf stage measured after 3 weeks by pot test; assay type: functional, organism-based
[3] = system: Avena fatua; assay: Post-emergence herbicidal activity against Avena fatua under greenhouse conditions at 2.5 g/a at 1.5-leaf stage measured after 3 weeks by pot test; assay type: functional, organism-based
[4] = system: Triticum aestivum; assay: Phytotoxicity against Triticum aestivum (wheat) under greenhouse conditions at 0.6 g/a at 1.5-leaf stage measured after 3 weeks by pot test; assay type: organism-based; conditions: in vivo, 504 h
[5] = system: Avena fatua; assay: Post-emergence herbicidal activity against Avena fatua under greenhouse conditions at 1.3 g/a at 1.5-leaf stage measured after 3 weeks by pot test; assay type: functional, organism-based
[6] = system: Avena fatua; assay: Post-emergence herbicidal activity against Avena fatua under greenhouse conditions at 5 g/a at 1.5-leaf stage measured after 3 weeks by pot test; assay type: functional, organism-based
[7] = system: Triticum aestivum; assay: Phytotoxicity against Triticum aestivum (wheat) under greenhouse conditions at 0.3 g/a at 1.5-leaf stage measured after 3 weeks by pot test; assay type: organism-based; conditions: in vivo, 504 h
[8] = system: Triticum aestivum; assay: Phytotoxicity against Triticum aestivum (wheat) under greenhouse conditions at 1.3 g/a at 1.5-leaf stage measured after 3 weeks by pot test; assay type: organism-based; conditions: in vivo, 504 h
[9] = system: Avena fatua; assay: Post-emergence herbicidal activity against Avena fatua under greenhouse conditions at 0.6 g/a at 1.5-leaf stage measured after 3 weeks by pot test; assay type: functional, organism-based
[10] = system: Triticum aestivum; assay: Phytotoxicity against Triticum aestivum (wheat) under greenhouse conditions at 5 g/a at 1.5-leaf stage measured after 3 weeks by pot test; assay type: organism-based; conditions: in vivo, 504 h
[11] = system: Avena fatua; assay: Post-emergence herbicidal activity against Avena fatua under greenhouse conditions compound treated at 1.5-leaf stage measured after 3 weeks by pot test relative to diclofop-methyl; assay type: functional
[12] = system: Avena fatua; assay: Post-emergence herbicidal activity against Avena fatua under greenhouse conditions at 10 g/a at 1.5-leaf stage measured after 3 weeks by pot test; assay type: functional, organism-based
[13] = system: Triticum aestivum; assay: Phytotoxicity against Triticum aestivum (wheat) under greenhouse conditions at 10 g/a at 1.5-leaf stage measured after 3 weeks by pot test; assay type: organism-based; conditions: in vivo, 504 h

Structure (SMILES) | Activity [1] | Activity [2] | Activity [3] | Activity [4] | Activity [5] | Activity [6] | Activity [7] | Activity [8] | Activity [9] | Activity [10] | Ratio [11] | Activity [12] | Activity [13]
CCNC(=O)CNC(=O)C(C)Oc1ccc(Oc2ncc(Cl)cc2Cl)cc1 (stereo unspecified) | Non-toxic | Active | Active | Non-toxic | Active | Active | Non-toxic | Non-toxic | Active | Non-toxic | 2 | – | –
COC(=O)C(C)Oc1ccc(Oc2ccc(Cl)cc2Cl)cc1 (stereo unspecified) [DICLOFOP-METHYL] | Non-toxic | – | Active | Non-toxic | inactive | Active | – | Non-toxic | inactive | Non-toxic | – | Active | Non-toxic
